In experiment [1] the test system is separation-induced vocalisations in guinea-pig pups. Put plainly: Separation-Induced Vocalisation in guinea-pig pups. It is filed as in vivo. As to conditions: for attenuation of separation-induced vocalisations compared with baseline: 30 minutes previously; for ED50: Cavia porcellus, read-out: guinea-pig vocalisation ID50. The source says:
Male and female guinea-pigs pups are housed in family groups with their mothers and littermates throughout the study. Experiments are commenced […] when the pups are at least 2 weeks old. Before entering an experiment, the pups may be screened to ensure that a vigorous vocalisation response is reproducibly elicited following maternal separation. The pups are placed individually in an observation cage (approximately 55 cm×39 cm×19 cm) in a room physically isolated from the home cage for approximately 15 minutes and the duration and/or number of vocalisation during this baseline period is recorded. […] On test days each pup receives an oral dose or an s.c. or i.p. injection of test compound or vehicle and is then immediately returned to the home cage with its mother and siblings for at least 30 to 60 minutes (or for up to 4 hours following an oral dose, dependent upon the oral pharmacokinetics of the test compound) before social isolation for 15 minutes as described above. The duration and/or number of vocalisation on drug treatment days may be expressed as a percentage of the pre-treatment baseline value for each animal or compared with values obtained in vehicle-treated animals. The same subjects may be retested once weekly for up to 6 weeks. Between 6 and 8 animals receive each test compound at each dose tested.
(v) Determine activity of compounds in assays sensitive to conventional serotonergic drugs (inhibition of pharmacologically evoked foot tapping in gerbils and/or inhibition of distress vocalisations in guinea-pig pups (Assay 4)).

The next experiment relates to foot tapping in gerbils. Description: Gerbil Foot-Tapping. It is filed as in vivo, Mongolian gerbil. The conditions noted are these: Meriones unguiculatus, iv, i.v. The text has this:
CNS-penetrant NK-1 receptor antagonists for use in the present invention can be identified by their ability to inhibit foot tapping in gerbils induced by anxiogenic agents (such as pentagastrin) or central infusion of NK-1 receptor agonists such as GR73632, or caused by aversive stimulation such as foot shock or single housing, based on the method of Rupniak & Williams, Eur. J. Pharmacol., 1994, 265, 179. […] Alternatively, test compounds may be administered orally or by subcutaneous or intraperitoneal routes. A skin incision is then made in the midline of the scalp to expose the skull. An anxiogenic agent (e.g. pentagastrin) or a selective NK-1 receptor agonist (e.g. GR73632 ([…] ]-substance P-(7-11)) is infused directly into the cerebral ventricles (e.g. 3 pmol in 5 μl i.c.v., depending on test substance) by vertical insertion of a cuffed 27 gauge needle to a depth of 4.5 mm below bregma. The scalp incision is closed and the animal allowed to recover from anaesthesia in a clear perspex observation box (approximately 25 cm×20 cm×20 cm). The duration and/or intensity of hind foot tapping is then recorded continuously for approximately 5 minutes. Alternatively, the ability of test compounds to inhibit foot tapping evoked by aversive stimulation, such as foot shock or single housing, may be studied using a similar method of quantification.

In experiment [2] the test system is cisplatin-induced emesis in ferrets. Put plainly: Ferret Emesis (cisplatin-induced). It is filed as in vivo. As to conditions: Mustela putorius, po, read-out: ferret emesis ID90. As for the experimental part:
Ten minutes later they are fed with approximately 100 g of tinned cat food. At 60 minutes following oral dosing, cisplatin (10 mg/kg) is given i.v. via a jugular vein catheter inserted under a brief period of halothane anaesthesia. The catheter is then removed, the jugular vein ligated and the skin incision closed. The ferrets recover rapidly from the anaesthetic and are mobile within 10-20 minutes. The animals are observed continuously during recovery from the anaesthetic and for 4 hours following the cisplatin injection, after which time the animals are killed humanely. The numbers of retches and vomits occurring during the 4 hours after cisplatin administration are recorded by trained observers.

[3] abbreviates: 5 min, read-out: gerbil foot-tapping (5 mins.) ID50.
Setting [4] is: 24 hrs., read-out: gerbil foot-tapping (24 hrs.) ID50.

Like-named read-outs stand apart in the source and are kept apart here.

On to `C[C@@H](O[C@@H]1OCCN(Cc2nn[nH]c2CN(C)C)[C@@H]1c1ccccc1)c1cc(C(F)(F)F)cc(C(F)(F)F)c1` [Test Compound B, 2-(S)-(1-(R)-(3,5-bis(trifluoromethyl)phenyl)ethoxy)-4-(5-(dimethylamino)methyl-1,2,3-triazol-4-yl)methyl-3-(R)-phenylmorpholine, reference compound], for which the “attenuation of separation-induced vocalisations, administered alone” value in experiment [1] (0.25 mg/kg s.c. alone (FIG. 1)) was “failure of the less active enantiomer, Test Compound B (0.25 mg/kg s.c.) to attenuate separation-induced vocalisations when administered alone”.

For `C[C@@H](O[C@H]1OCCN(Cc2nn[nH]c2CN(C)C)[C@H]1c1ccccc1)c1cc(C(F)(F)F)cc(C(F)(F)F)c1` [Test Compound A, 2-(R)-(1-(R)-(3,5-bis(trifluoromethyl)phenyl)ethoxy)-4-(5-(dimethylamino)methyl-1,2,3-triazol-4-yl)methyl-3-(S)-phenylmorpholine], the ED50 in the experiment with foot tapping in gerbils (setting [3]) was 0.12 mg/kg; with foot tapping in gerbils (setting [4]) it was 0.17 mg/kg; in experiment [1] (sc), 0.5 mg/kg. In experiment [1] (0.25 mg/kg s.c. alone), the “attenuation of separation-induced vocalisations compared with baseline” value was “approximately 25%”.

For the molecule `C[C@@H](O[C@H]1OCCN(Cc2n[nH]c(=O)[nH]2)[C@H]1c1ccc(F)cc1)c1cc(C(F)(F)F)cc(C(F)(F)F)c1` [2-(R)-(1-(R)-(3,5-bis(trifluoromethyl)phenyl)-ethoxy)-3-(S)-(4-fluorophenyl)-4-(3-(5-oxo-1H,4H-1,2,4-triazolo)methyl)-morpholine], the ED50 in the experiment with foot tapping in gerbils (setting [3]) turned out to be 0.36 mg/kg; with foot tapping in gerbils (setting [4]), 0.33 mg/kg; in experiment [1] (po, 4 hrs. pretreatment), 0.73 mg/kg. Moreover, the ED90 in experiment [2] is less than 3 mg/kg.

In the case of `CNCCC(Oc1ccc(C(F)(F)F)cc1)c1ccccc1` (stereo not shown) [fluoxetine, reference compound], in experiment [1] (2 mg/kg i.p. alone), the “attenuation of separation-induced vocalisations compared with baseline” value was “approximately 25%”.
